Drawing on patent US8884023B2, “Pyrano [3,2-D][1,3]thiazole as glycosidase inhibitors” (priority 2011, dated 2014), this text covers IC50 and EC50 for 20 compounds.

Like-named read-outs stand apart in the source and are kept apart here.

One may read the IC50 as the concentration needed to halve the response being measured. The term EC50 denotes the concentration at which the effect is half-maximal.

Assay [1] addresses T1, His-Tagged hOGA (human O-GlcNAcase) (Homo sapiens, UniProt O60502).
T1 sequence (O60502 1-916): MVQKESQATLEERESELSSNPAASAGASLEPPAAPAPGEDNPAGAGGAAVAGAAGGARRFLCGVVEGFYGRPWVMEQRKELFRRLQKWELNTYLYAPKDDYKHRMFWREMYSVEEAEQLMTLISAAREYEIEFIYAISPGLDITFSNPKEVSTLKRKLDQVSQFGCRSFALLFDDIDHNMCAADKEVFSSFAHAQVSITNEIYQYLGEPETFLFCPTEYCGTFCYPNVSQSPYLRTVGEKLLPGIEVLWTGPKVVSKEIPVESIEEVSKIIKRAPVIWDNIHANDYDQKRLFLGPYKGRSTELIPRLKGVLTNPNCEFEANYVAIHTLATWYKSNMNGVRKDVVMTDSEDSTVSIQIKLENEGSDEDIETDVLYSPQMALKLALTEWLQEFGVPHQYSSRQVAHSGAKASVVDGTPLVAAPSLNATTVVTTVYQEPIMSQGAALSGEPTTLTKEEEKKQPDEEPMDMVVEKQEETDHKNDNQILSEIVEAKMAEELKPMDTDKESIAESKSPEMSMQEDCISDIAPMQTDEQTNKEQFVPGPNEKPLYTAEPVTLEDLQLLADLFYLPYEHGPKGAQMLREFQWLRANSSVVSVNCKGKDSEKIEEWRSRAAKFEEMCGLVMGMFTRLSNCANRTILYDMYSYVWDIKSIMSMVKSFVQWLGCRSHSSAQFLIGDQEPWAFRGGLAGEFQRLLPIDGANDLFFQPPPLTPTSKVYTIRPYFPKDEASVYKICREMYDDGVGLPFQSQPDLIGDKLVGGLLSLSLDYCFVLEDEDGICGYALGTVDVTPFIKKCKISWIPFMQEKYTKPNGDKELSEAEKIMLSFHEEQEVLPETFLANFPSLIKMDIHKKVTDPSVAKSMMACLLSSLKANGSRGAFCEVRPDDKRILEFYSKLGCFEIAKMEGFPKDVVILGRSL
In words: biochemical. As to the method: Human O-GlcNAcase Enzyme Inhibition Assay
The following reaction components were added to a final volume of 10 μL in McIlvaine's Buffer (pH 6.5):
20 nM His-Tagged hOGA and 10 μM Fluoroscein mono-beta-D-(2-deoxy-2-N-acetyl) glucopyranoside (FL-GlcNAc; Marker Gene Technologies Inc, Part #M1485). […] The amount of fluorescence measured was plotted against the concentration of inhibitor to produce a sigmoidal dose response curve, from which an IC50 was calculated.

Assay [2] deals with T2, O-GlcNAcase (UniProt Q8VIJ5).
T2 sequence (Q8VIJ5 1-916): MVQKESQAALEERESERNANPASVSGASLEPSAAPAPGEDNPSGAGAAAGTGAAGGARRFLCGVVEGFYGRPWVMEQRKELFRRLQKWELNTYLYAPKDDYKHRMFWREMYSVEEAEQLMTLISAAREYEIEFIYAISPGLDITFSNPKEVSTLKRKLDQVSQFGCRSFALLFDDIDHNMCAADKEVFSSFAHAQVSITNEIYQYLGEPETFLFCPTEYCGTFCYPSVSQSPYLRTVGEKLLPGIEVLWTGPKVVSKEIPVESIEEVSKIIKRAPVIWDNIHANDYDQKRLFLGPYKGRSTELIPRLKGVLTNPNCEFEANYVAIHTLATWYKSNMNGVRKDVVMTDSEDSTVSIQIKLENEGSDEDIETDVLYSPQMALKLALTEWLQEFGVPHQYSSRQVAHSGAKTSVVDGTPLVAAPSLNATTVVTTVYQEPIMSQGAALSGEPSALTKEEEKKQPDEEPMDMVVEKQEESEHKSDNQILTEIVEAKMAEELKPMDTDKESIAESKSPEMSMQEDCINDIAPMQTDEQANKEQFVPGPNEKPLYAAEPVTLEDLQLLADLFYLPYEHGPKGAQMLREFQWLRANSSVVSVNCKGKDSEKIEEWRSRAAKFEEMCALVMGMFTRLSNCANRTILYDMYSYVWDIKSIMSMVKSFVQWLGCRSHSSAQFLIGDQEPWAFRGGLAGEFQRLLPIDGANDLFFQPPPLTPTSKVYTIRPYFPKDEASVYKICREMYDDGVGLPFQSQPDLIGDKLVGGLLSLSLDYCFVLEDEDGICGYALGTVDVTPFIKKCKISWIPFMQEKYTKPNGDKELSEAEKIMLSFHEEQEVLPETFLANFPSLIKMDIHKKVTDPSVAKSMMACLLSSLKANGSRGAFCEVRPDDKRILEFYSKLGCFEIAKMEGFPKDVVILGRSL
Format: cell-based. An excerpt:
Assay for the Determination of Cellular Activity for Compounds that Inhibit O-GlcNAcase Activity
Inhibition of O-GlcNAcase, which removes O-GlcNAc from cellular proteins, results in an increase in the level of O-GlcNAcylated proteins in cells. An increase in the O-GlcNAcylation of cellular proteins can be measured by an antibody, such as CTD110.6, that binds O-GlcNAcylated proteins. The amount of O-GlcNAcylated protein can be determined by the enzyme linked immunoabsorbant assay (ELISA) technique.
Cell lines, such as rat B35, rat PC-12 and human SH-SY5Y cells, expressing endogenous levels of O-GlcNAcase, could be utilized. Cells were plated in 96-well plates at a density of approximately 10,000 cells/well. Compounds to be tested were dissolved in DMSO as 10 mM stock solution, and then diluted first with DMSO and then culture media using the Bravo workstation. Cells were treated with diluted compounds for approximately 16 hours. […] To prepare a cell lysate, the media from compound treated cells were removed, and the cells were washed once with Dulbecco's phosphate buffered saline (DPBS) and then lysed for 30 minutes in 100 μl/well of ice cold RIPA buffer containing a protease inhibitor cocktail.
The ELISA portion of the assay was performed in EIA/RIA plates that were coated overnight at 4 C with 80 μl/well of cell lysate. The following day the wells were washed 6 times with 200 μl of wash buffer (0.05% Tween20 in DPBS). The wells were blocked with 200 μl blocking buffer (1% BSA, 0.05% Tween20 in DPBS) for 1 h at room temperature. Each well was then washed 6 times with 200 μl of wash buffer. The anti-O-GlcNAc antibody CTD110.6 (Covance, Princeton, N.J.) was added at 100 μl/well at a concentration of 10 μg/ml. The plates were incubated for 1 h at room temperature. The wells were then washed 6 times with 200 μl/well of wash buffer. To detect the amount of CTD110.6 bound to the cell lysate, alkaline phosphatase conjugated goat anti-mouse IgM (diluted 1:500 in blocking buffer) was added at 100 μl/well and incubated for 45 min at room temperature. Each well was then washed 6 times with 200 μl/well of wash buffer. PNPP tablets dissolved in diethanolamine substrate buffer and 100 μl/well were added as detection reagent.
The amount of O-GlcNAcylated protein, as detected by the ELISA assay, was plotted for each concentration of test compound using standard curve fitting algorithms for sigmoidal dose response curves. The values for a four parameter logistic curve fit of the data were determined, with the inflection point of the curve being the potency value for the test compound.

[3] abbreviates: read-out: OGA enzyme inhibition (IC50).
Setting [4] is: cells expressing endogenous O-GlcNAcase (such as rat B35, rat PC-12, human SH-SY5Y), approximately 16 hours treatment; read-out: OGA cellular inhibition (EC50).

Take `CCNC1=N[C@@H]2[C@@H](O)[C@H](O)[C@@H](Cn3cc(COc4cccc(C)c4)nn3)O[C@@H]2S1` [compound 77]: the IC50 in assay [1] (setting [3]) was below 0.1 µM. Further, the concentration giving a half-maximal response (EC50) in assay [2] (setting [4]) lay in the range of 0.1 to 0.5 µM.
`CCNC1=N[C@@H]2[C@@H](O)[C@H](O)[C@@H](Cn3cc(COc4cccc(Cl)c4)nn3)O[C@@H]2S1` [compound 78]: the IC50 in assay [1] is below 0.1 µM. In assay [2] (setting [4]), the EC50 is below 0.1 µM.
Regarding `CCNC1=N[C@@H]2[C@@H](O)[C@H](O)[C@@H](Cn3cc(COc4cccc(F)c4)nn3)O[C@@H]2S1` [compound 79], the IC50 in assay [1] (setting [3]) was below 0.1 µM. The half-maximal effective concentration (EC50) in assay [2] (setting [4]) was 0.1 to 0.5 µM.
Consider `CCNC1=N[C@@H]2[C@@H](O)[C@H](O)[C@@H](Cn3cc(COc4cccc(OC)c4)nn3)O[C@@H]2S1` [compound 80], for which the IC50 in assay [1] is below 0.1 µM. Moreover, in assay [2] (setting [4]), the half-maximal effective concentration (EC50) fell in the range of 0.1 to 0.5 µM.
On to `CCNC1=N[C@@H]2[C@@H](O)[C@H](O)[C@@H](Cn3cc(COc4cccc(S(C)(=O)=O)c4)nn3)O[C@@H]2S1` [compound 81], for which the IC50 in assay [1] is below 0.1 µM. Moreover, in assay [2] (setting [4]), the EC50 was above 1 µM.
For `CCNC1=N[C@@H]2[C@@H](O)[C@H](O)[C@@H](Cn3cc(COc4ccccc4C#N)nn3)O[C@@H]2S1` [compound 82], in that order: below 0.1 µM and above 1 µM.
For `CCNC1=N[C@@H]2[C@@H](O)[C@H](O)[C@@H](Cn3cc(COc4ccccc4O)nn3)O[C@@H]2S1` [compound 84], in that order: 0.1 to 0.5 µM and above 1 µM.
The compound `CCNC1=N[C@@H]2[C@@H](O)[C@H](O)[C@@H](Cn3cc(COc4ccccc4Cl)nn3)O[C@@H]2S1` [compound 86] had a 50% inhibitory concentration (IC50) in assay [1] below 0.1 µM. For the same compound, the EC50 in assay [2] (setting [4]) is below 0.1 µM.
As to `CCNC1=N[C@@H]2[C@@H](O)[C@H](O)[C@@H](Cn3cc(COc4ccccc4C)nn3)O[C@@H]2S1` [compound 87], the IC50 in assay [1] (setting [3]) is below 0.1 µM. Further, in assay [2] (setting [4]), the EC50 fell in the range of 0.5 to 1 µM.
In assay [1], `CCNC1=N[C@@H]2[C@@H](O)[C@H](O)[C@@H](Cn3cc(COc4ccccc4OC)nn3)O[C@@H]2S1` [compound 88] came in with a 50% inhibitory concentration (IC50) below 0.1 µM. In addition, the EC50 in assay [2] (setting [4]) was above 1 µM.
As to `CCNC1=N[C@@H]2[C@@H](O)[C@H](O)[C@@H](Cn3cc(COc4ccccc4F)nn3)O[C@@H]2S1` [compound 89], the IC50 in assay [1] (setting [3]) was below 0.1 µM. Besides, in assay [2] (setting [4]), the concentration for a half-maximal effect (EC50) fell in the range of 0.1 to 0.5 µM.
The compound `CCNC1=N[C@@H]2[C@@H](O)[C@H](O)[C@@H](Cn3cc(COc4ccc(C(C)O)cc4)nn3)O[C@@H]2S1` (stereo partly shown) [compound 90] registered an IC50 in assay [1] below 0.1 µM. The EC50 in assay [2] (setting [4]) was above 1 µM.
With `CCNC1=N[C@@H]2[C@@H](O)[C@H](O)[C@@H](Cn3cc(COc4ccc(C)cc4)nn3)O[C@@H]2S1` [compound 91], in assay [1] (setting [3]), the IC50 was in the range of 0.1 to 0.5 µM. The EC50 in assay [2] (setting [4]) was above 1 µM.
With `CCNC1=N[C@@H]2[C@@H](O)[C@H](O)[C@@H](Cn3cc(COc4ccc(Cl)cc4)nn3)O[C@@H]2S1` [compound 92], the IC50 in assay [1] (setting [3]) is below 0.1 µM. In addition, in assay [2] (setting [4]), the EC50 is 0.1 to 0.5 µM.
With `CCNC1=N[C@@H]2[C@@H](O)[C@H](O)[C@@H](Cn3cc(COc4ccc(F)cc4)nn3)O[C@@H]2S1` [compound 93], the IC50 in assay [1] (setting [3]) was below 0.1 µM. Moreover, the concentration giving a half-maximal response (EC50) in assay [2] (setting [4]) was above 1 µM.
`CCNC1=N[C@@H]2[C@@H](O)[C@H](O)[C@@H](Cn3cc(COc4ccc(C(C)(C)C)cc4)nn3)O[C@@H]2S1` [compound 94] came in with an IC50 in assay [1] of 0.1 to 0.5 µM. In addition, the EC50 in assay [2] (setting [4]) is 0.1 to 0.5 µM.
Consider `CCNC1=N[C@@H]2[C@@H](O)[C@H](O)[C@@H](Cn3cc(-c4ccccc4)nn3)O[C@@H]2S1` [compound no. 2, (3aR,5R,6S,7R,7aR)-2-(ethylamino)-5-[(4-phenyl-1H-1,2,3-triazol-1-yl)methyl]-5,6,7,7a-tetrahydro-3aH-pyrano[3,2-d][1,3]thiazole-6,7-diol], for which the IC50 in assay [1] (setting [3]) lay in the range of 0.1 to 0.5 µM. Moreover, the EC50 in assay [2] (setting [4]) is above 1 µM.
Take `CCNC1=N[C@@H]2[C@@H](O)[C@H](O)[C@@H](COC(=O)OC(C)(C)C)O[C@@H]2S1` [compound no. 3, tert-butyl [(3aR,5R,6S,7R,7aR)-2-(ethylamino)-6,7-dihydroxy-5,6,7,7a-tetrahydro-3aH-pyrano[3,2-d][1,3]thiazol-5-yl]methyl carbonate]: the IC50 in assay [1] (setting [3]) was 0.1 to 0.5 µM. In addition, in assay [2] (setting [4]), the EC50 is below 0.1 µM.
`CCNC1=N[C@@H]2[C@@H](O)[C@H](O)[C@@H](CF)O[C@@H]2S1` [compound no. 4, (3aR,5S,6S,7R,7aR)-2-(ethylamino)-5-(fluoromethyl)-5,6,7,7a-tetrahydro-3aH-pyrano[3,2-d][1,3]thiazole-6,7-diol] gave an IC50 in assay [1] below 0.1 µM. Further, the EC50 in assay [2] (read-out: OGA cellular inhibition (EC50); cells expressing endogenous O-GlcNAcase (such as rat B35, rat PC-12, human SH-SY5Y), approximately 16 hours treatment) is 0.1 to 0.5 µM.
`CCNC1=N[C@@H]2[C@@H](O)[C@H](O)[C@@H](CBr)O[C@@H]2S1` [compound no. 5, (3aR,5S,6S,7R,7aR)-5-(bromomethyl)-2-(ethylamino)-5,6,7,7a-tetrahydro-3aH-pyrano[3,2-d][1,3]thiazole-6,7-diol]: in assay [1] (setting [3]), the IC50 is below 0.1 µM. The EC50 in assay [2] (setting [4]) is 0.1 to 0.5 µM.
